The results in this text go back to patent US5536740A, “Skin care compositions containing dimethyl imidazolidinone and retinol or retinyl ester” (priority 1995, dated 1996).

Entries after “also recorded” stand apart in the source; their conditions may differ. Like-named read-outs stand apart in the source and are kept apart here.

One assay has as its system Human keratinocytes. Put plainly: 3H-thymidine incorporation assay of keratinocyte proliferation. The format is cell-based. The protocol: (§1) Human keratinocytes, isolated from neonatal foreskin by trypsin treatment were grown in Dulbecco Modification Eagle (DME) Hams F12 (1:1) medium/10% fetal calf serum in the presence of irradiated 3T3 mouse fibroblasts for establishing dividing keratinocyte colonies. Cells were grown under the above condition until their second passage and kept frozen for future use. […] On day 7, when the cells were 80-90% confluent, they were trypsinized and plated in the serum-free medium for the various experiments.
^3 H-Thymidine Incorporation and Keratinocyte Proliferation
The incorporation of ^3 H-thymidine by cultured keratinocytes was used as an assay of keratinocyte proliferation. Thymidine is one of four deoxynucleosides which are the monomeric units of DNA, the universal library of genetic information in the animal kingdom. Prior to cell division of a somatic cell such as a keratinocyte, the complete genome of the cell undergoing cell division is replicated. This involves large scale DNA synthesis by the cell and enables both daughter cells to receive identical copies of the genetic material. When ^3 H-thymidine is included in the culture media of keratinocytes which are synthesizing DNA in preparation for cell division then the labelled nucleoside is incorporated into the newly synthesized DNA. The extent of incorporation of ^3 -thymidine into a population of cells is proportional to the rate of DNA synthesis by this population of cells and therefore an indication of their cellular proliferation.
Keratinocytes (that were cultured as described above) were plated in 24 well plates at a density of 40,000 cells per well in 1 ml media. After incubation for four days or until the cells were 60-70% confluent, the media was changed. Test compounds were added (in triplicate) to the wells 24 hours after the media change, and four hours later 1 μCi^3 H-Thymidine in 50 μl media was added per well. Cells were incubated for a further 24 hours. Media was removed from the cells, 10% ice cold trichloroacetic acid (TCA) added and plates were incubated on ice for 30 minutes. Cells were washed five times with 5% TCA and allowed to dissolve in 500 μl 0.1M NaOH for at least one hour (usually overnight). The preparations were neutralized with 0.1M HCl; 50 μl of the cell preparation was used to determine total protein content. Disintegrations per minute (DPM) from a H labelling of DNA was determined by liquid scintillation counting of 900 μl of the cell preparation. Thymidine incorporation results were expressed as DPM/μg protein.

Assay [1] relates to TGase I in human keratinocytes. Put plainly: ELISA based transglutaminase I (TGase I) assay of keratinocyte differentiation. Format: cell-based. As to the method:
as §1
Transglutaminase Assay and Keratinocyte Differentiation
During the process of terminal differentiation in the epidermis, a 15 nm thick layer of protein, known as the cornified envelope (CE) is formed on the inner surface of the cell periphery. The CE is composed of numerous distinct proteins which have been cross-linked together by the formation of N^ε -(γ-glutamyl)lysine isodipeptide bonds catalyzed by the action of at least two different transglutaminases (TGases) expressed in the epidermis. TGase 1 is expressed in abundance in the differentiated layers of the epidermis, especially the granular layer, but is absent in the undifferentiated basal epidermis. Thus TGase I is a useful marker of epidermal keratinocyte differentiation with high TGase I levels indicating a more differentiated state. An ELISA based TGase I assay, using a TGase I antibody, was used to assess the state of differentiation of the cultured keratinocytes in the examples that follow.
Keratinocytes (cultured as described above) were plated in 96 well plates at a density of 3,000 cells per well in 200 μl media. After incubation for four days the media was changed to media containing test compounds (six replicates per test). The cells were cultured for a further 72 hours after which time the media was aspirated and the plates stored at -70° C. Plates were removed from the freezer, and the cells washed with PBS. 100 μl sterile water was added and the cells were freeze fractured by freezing at -70° C. then thawing. The cells were incubated for one hour at room temperature (R/T) with PBS/3% BSA (wash buffer, bovine serum albumin), then rinsed with a fresh aliquot of wash buffer. Cells were incubated with 50 μl of primary antibodies monoclonal anti-human transglutaminase (IgG) obtained from Amersham (mouse) diluted 1:300 in wash buffer for one hour, 37° C. then rinsed two times with wash buffer. Cells were then incubated with 50 μl of secondary antibody (Feb fragment, peroxidase conjugated anti-mouse IgG obtaining from Amersham) diluted 1:200 in wash buffer for one hour at 37° C., then rinsed two times with wash buffer. Cells were incubated with substrate solution (4 mg o-phenylene diamine and 3.3 μl 30% H2 O2 in 10 ml 0.1M citrate buffer pH 5.0) for five minutes, R/T, in darkness (under aluminum foil). The reaction was stopped by the addition of 50 μl 4N […]. The absorbance of samples was read at 492 nm in the plate reader. Out of the six replicates, four were treated with both antibodies, two were treated only with the secondary antibody (i.e., to determine background binding of enzyme conjugated Ab). TGase levels were determined by subtracting background from the readings from each treatment and determining mean ±s.d. for the replicates exposed to both Ab.
The level of TGase-1 was normalized to DNA content of the cells in the same well thus eliminating variation due to differences in cell number. DNA quantitation is a particularly useful indicator of cell number, including keratinocyte cell number, because each cell has to all intents and purposes an identical genome and therefore an identical quantity of DNA. The total DNA content of a well of cells therefore is directly proportional to the cell number in that well. Quantitation of DNA was used to normalize the TGase data to cell number.
Keratinocytes were plated in 96 well plates at a density of 3,000 cells per well in […] media.

The mark [2] stands for this setting: Example 4, 2.5 × 10^-8 M, 24 hours, n = 3.
[3] abbreviates: Homo sapiens, Keratinocyte, Example 4, 2.5 × 10^-8 M, 24 hours, n = 3, read-out: mean Thymidine incorp/μg protein (% control).
The mark [4] stands for this setting: Example 4, 2.5 × 10^-8 M, n = 3.
Where [5] appears, read: Homo sapiens, Keratinocyte, 72 h, Example 4, 2.5 × 10^-8 M, n = 3, read-out: mean TGase (% control).

For the compound `CCCCCCCCCCCCCCCC(=O)OC/C=C(C)/C=C/C=C(C)/C=C/C1=C(C)CCCC1(C)C` [Retinyl Palmitate (RP), retinyl palmitate], the “effect on keratinocyte proliferation (in words)” value with Human keratinocytes is reported as “completely ineffective at increasing keratinocyte proliferation”. Further, the “mean Thymidine incorp/μg protein ± s.d” value with Human keratinocytes (setting [2]) is reported as 3386 ± 326 DPM/μg protein. The activity at 0.025 µM with Human keratinocytes (setting [3]) was determined as 97%; in assay [1] (setting [5]) it was 79%. In assay [1], the “effect on keratinocyte TGase level / differentiation (in words)” value is reported as “significantly less effective than retinoic acid at inhibiting keratinocyte differentiation”. Besides, in assay [1] (setting [4]), the “mean TGase ± s.d” value was found to be 0.790 ± 0.387.
On to `CC1=C(/C=C/C(C)=C/C=C/C(C)=C/C(=O)O)C(C)(C)CCC1` [RA, retinoic acid, reference compound], for which the “mean Thymidine incorp./μg protein ± s.d” value is recorded as 2475 ± 116 DPM/μg protein with Human keratinocytes (2.5 × 10^-7 M, 24 hours, n = 3); 2686 ± 72 DPM/μg protein in the assay on Human keratinocytes (2.5 × 10^-8 M, 24 hours, n = 3 (Examples 1-3)); 2556 ± 80 DPM/μg protein in the assay with Human keratinocytes (2.5 × 10^-9 M, 24 hours, n = 3). Further, the “mean Thymidine incorp/μg protein ± s.d” value with Human keratinocytes (setting [2]) was found to be 3691 ± 205 DPM/μg protein. The activation at 0.025 µM worked out at 28% with Human keratinocytes (Homo sapiens, Keratinocyte, read-out: increase in keratinocyte thymidine incorporation over the 2.5×10^-8 M retinol treatment, Example 2, 2.5×10^-8 M); 6% in the assay on Human keratinocytes (Homo sapiens, Keratinocyte, read-out: increase in keratinocyte thymidine incorporation over the 2.5×10^-8 M retinyl palmitate treatment, Example 4, 2.5×10^-8 M); 28% in the assay on Human keratinocytes (Homo sapiens, Keratinocyte, read-out: increase in keratinocyte thymidine incorporation over the ethanol control, Example 2, 2.5×10^-8 M); 6% in the assay on Human keratinocytes (Homo sapiens, Keratinocyte, read-out: increase in keratinocyte thymidine incorporation over the ethanol control, Example 4, 2.5×10^-8 M). Moreover, the activity at 0.25 µM in the assay on Human keratinocytes (Homo sapiens, Keratinocyte, 2.5 × 10^-7 M, 24 hours, n = 3, read-out: mean Thymidine incorp./μg protein (% control)) worked out at 118%; in assay [1] (Homo sapiens, Keratinocyte, 72 h, 2.5 × 10^-7 M, normalized to DNA, 72 hours, n = 3, read-out: mean TGase/DNA (% control)) it was 7%. Moreover, the activity at 0.025 µM with Human keratinocytes (Homo sapiens, Keratinocyte, 2.5 × 10^-8 M, 24 hours, n = 3 (Examples 1-3), read-out: mean Thymidine incorp./μg protein (% control)) stood at 128%; with Human keratinocytes (setting [3]), 106%; in assay [1] (Homo sapiens, Keratinocyte, 72 h, 2.5 × 10^-8 M, normalized to DNA, 72 hours, n = 3, read-out: mean TGase/DNA (% control)), 55%; in assay [1] (setting [5]), 16%. Further, the activity at 0.0025 µM in the assay with Human keratinocytes (Homo sapiens, Keratinocyte, 2.5 × 10^-9 M, 24 hours, n = 3, read-out: mean Thymidine incorp./μg protein (% control)) amounted to 122%; in assay [1] (Homo sapiens, Keratinocyte, 72 h, 2.5 × 10^-9 M (ROH line printed 2.5 × 10^-0 M), normalized to DNA, 72 hours, n = 3, read-out: mean TGase/DNA (% control)), 77%. Further, the “effect on keratinocyte proliferation (in words)” value is “increased keratinocyte proliferation” in the assay on Human keratinocytes (listed as Retinoic acid); “significantly increased keratinocyte proliferation over both the ethanol control and each of the 2.5×10^-7 M, 2.5×10^-8 M and 2.5×10^-9 M retinol treatments and they did so in a dose dependant manner” in the assay on Human keratinocytes (listed as retinoic acid). The “mean TGase/DNA × 10^-4 ± s.d” value in assay [1] (2.5 × 10^-7 M, normalized to DNA, 72 hours, n = 3) is 0.16 ± 0.11 × 10^-4; in assay [1] (2.5 × 10^-8 M, normalized to DNA, 72 hours, n = 3) it was 1.34 ± 0.40 × 10^-4; in assay [1] (2.5 × 10^-9 M (ROH line printed 2.5 × 10^-0 M), normalized to DNA, 72 hours, n = 3) it was 1.87 ± 0.49 × 10^-4. For the same compound, the “mean TGase ± s.d” value in assay [1] (setting [4]) came to 0.155 ± 0.098. In assay [1] (Example 4, 2.5 × 10^-8 M, n = 3, 0.025 µM, 4320 min), the “mean TGase (% control)” value stood at 15%. For the same compound, the “effect on keratinocyte TGase level / differentiation (in words)” value in assay [1] (listed as Retinoic acid) was “decreased keratinocyte differentiation”; in assay [1] (listed as retinoic acid), “decreased keratinocyte TGase level over both the ethanol control and did so to a significantly greater extent than each of the corresponding 2.5×10^-7 M, 2.5×10^-8 M and 2.5×10^-9 M retinol treatments”.
As for `CN1CCN(C)C1=O` [Dimethyl imidazolidinone, 1,3-dimethyl-2-imidazolidinone], the “effect on keratinocyte proliferation (in words)” value with Human keratinocytes is listed as “had no effect on keratinocyte proliferation on its own; also recorded: exerts little or no benefit”. Also, the “mean Thymidine incorp/μg protein ± s.d” value in the assay with Human keratinocytes (10^-6 M, 24 hours, n = 3) was found to be 1892 ± 119 DPM/μg protein; in the assay on Human keratinocytes (10^-7 M, 24 hours, n = 3 (Example 3)), 2260 ± 166 DPM/μg protein; in the assay on Human keratinocytes (10^-9 M, 24 hours, n = 3), 2003 ± 128 DPM/μg protein; in the assay with Human keratinocytes (Example 4, 10^-7 M, 24 hours, n = 3) it was 3214 ± 128 DPM/μg protein. Besides, the activity at 1 µM in the assay on Human keratinocytes (Homo sapiens, Keratinocyte, 24 h, read-out: mean Thymidine incorp/μg protein (% control), 10^-6 M, 24 hours, n = 3) was determined as 90%. The activity at 0.1 µM with Human keratinocytes (Homo sapiens, Keratinocyte, 24 h, read-out: mean Thymidine incorp/μg protein (% control), 10^-7 M, 24 hours, n = 3 (Example 3)) turned out to be 108%; in the assay with Human keratinocytes (Homo sapiens, Keratinocyte, 24 h, read-out: mean Thymidine incorp/μg protein (% control), Example 4, 10^-7 M, 24 hours, n = 3) it was 92%. Also, in the assay with Human keratinocytes (Homo sapiens, Keratinocyte, 24 h, read-out: mean Thymidine incorp/μg protein (% control), 10^-9 M, 24 hours, n = 3), the activity at 0.001 µM was found to be 96%. Moreover, in assay [1], the “effect on keratinocyte TGase level / differentiation (in words)” value was “had no effect on keratinocyte TG1 levels”. Besides, the “mean TGase ± s.d” value in assay [1] (Example 4, 10^-8 M, n = 3) is 0.990 ± 0.251. In assay [1] (Homo sapiens, Keratinocyte, 72 h, read-out: mean TGase (% control)), the activity at 0.01 µM was found to be 99%.
